Measured values taken from patent publication US9409952B2, “Peptide-compound cyclization method” (Chugai Seiyaku Kabushiki Kaisha, priority 2011, dated 2016).
Read-outs that look alike come from different tables or passages of the source. Starred links: 1 amine or outer side, 2 acyl side, 3 side chain; linkers in the order of their positions; H or OH if unused. Positions of bridges follow the written chain, without caps; N, C: chain ends. Non-standard residues stand in square brackets, D forms with d. Residues, ends and D or L forms follow the SMILES beside them. ξ: configuration not given here. *: point of attachment. NMeF = CN[C@@H](Cc1ccccc1)C(=O)O; NMeI = CC[C@H](C)[C@H](NC)C(=O)O; NMeβAla = CN(CCC(=O)[*:2])[*:1]; NMeL = CN[C@@H](CC(C)C)C(=O)O; Thr(3ξ) = CC(O)[C@H](N)C(=O)O; NMeV = CN[C@H](C(=O)O)C(C)C; NMeA = CN[C@@H](C)C(=O)O; Piperidide = C1CCN(*)CC1; dNMeA = CN[C@H](C)C(=O)O; Sar = CNCC(=O)O; tBu = CC(C)(C)*

Experiments:
[1] = PAMPA (parallel artificial membrane permeability assay); type: in vitro ADME; settings: PAMPA
Method in brief: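 Artificial membrane was 10% (w/v) egg lecithin plus 0.5% (w/v) cholesterol in dodecane on a PVDF filter. A 10 mM DMSO stock was added at 0.5% (v/v) to donor buffer (50 mM MOPSO, pH 6.5, 5.0% glycocholic acid). After 18 h at 37 °C, LC/MS or LC/UV gave donor and acceptor levels for Pe.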

[2] = Metabolic stability in human hepatic microsome; type: in vitro ADME; settings: microsomes
[3] = membrane permeation rate (Pe), 50 mM MOPSO buffer pH 6.5 with 5.0% glycocholic acid, 37° C., 18 hours, read-out: iPAMPA Pe
[4] = pH 7.4, human hepatic microsome, NADPH(+), read-out: CL NADPH(+)

| SMILES | Papp at 18 hours, 50 µM [1, 3] [×10⁻⁶ cm/s] | microsomal CLint at 1 uM [2, 4] [µL/min/mg] | Papp at 18 hours, 50 µM ([1]; pH 6.5) [×10⁻⁶ cm/s] | microsomal CLint at 1 uM ([2]; human, pH 7.4, CL NADPH(+)) [µL/min/mg] |
| --- | --- | --- | --- | --- |
| CC[C@H](C)[C@@H]1NC(=O)[C@H](C)N(C)C(=O)CCN(C)C(=O)C[C@@H](C(=O)N2CCCCC2)NC(=O)[C@H](CC(C)C)N(C)C(=O)[C@H](CC(C)C)N(C)C(=O)[C@H](C)N(C)C(=O)[C@H]([C@@H](C)O)NC(=O)[C@H](Cc2ccccc2)N(C)C(=O)[C@H](Cc2ccccc2)N(C)C1=O [DP-140] ([NMeβAla][NMeA]I[NMeF][NMeF]T[NMeA][NMeL][NMeL]D-Piperidide; lactam N-10) | 61 | 96 |  |  |
| CC[C@H](C)[C@H]1C(=O)N[C@H](C(=O)N2CCCCC2)CC(=O)N(C)[C@H](C)C(=O)N[C@@H](Cc2ccccc2)C(=O)N(C)[C@@H](C)C(=O)N(C)[C@@H](CC(C)C)C(=O)N[C@@H]([C@@H](C)O)C(=O)N(C)CC(=O)N(C)[C@@H](C(C)C)C(=O)N[C@@H](C)C(=O)N1C [DP-142] ([dNMeA]F[NMeA][NMeL]T[Sar][NMeV]A[NMeI]D-Piperidide; lactam N-10) |  |  | 4 | 22 |
| CC(C)C[C@@H]1NC(=O)[C@H](C(C)C)N(C)C(=O)[C@H](Cc2ccccc2)NC(=O)CN(C)C(=O)[C@H]([C@@H](C)O)NC(=O)[C@H](C)N(C)C(=O)[C@H](CC(C)C)N(C)C(=O)[C@@H](C(C)C)NC(=O)C[C@@H](C(=O)N2CCCCC2)NC(=O)[C@H](C)NC(=O)[C@H](CC(C)C)N(C)C1=O [DP-143] ([dV][NMeL][NMeA]T[Sar]F[NMeV]L[NMeL]AD-Piperidide; lactam N-11) |  |  | 20 | 25 |
| CC[C@H](C)[C@H]1C(=O)N[C@H](C(=O)N2CCCCC2)CC(=O)N(C)[C@H](C)C(=O)N(C)[C@@H](C)C(=O)N(C)CC(=O)N(C)[C@@H](CC(C)C)C(=O)N[C@@H]([C@@H](C)O)C(=O)N(C)[C@@H](Cc2ccccc2)C(=O)N(C)[C@@H](CC(C)C)C(=O)N[C@@H](COC(C)(C)C)C(=O)N1C [DP-144] ([dNMeA][NMeA][Sar][NMeL]T[NMeF][NMeL]S(tBu)[NMeI]D-Piperidide; lactam N-10) |  |  | 65 | 125 |
| CC[C@H](C)[C@H]1C(=O)N[C@@H](CC(C)C)C(=O)N(C)[C@@H](Cc2ccccc2)C(=O)N(C)[C@@H](CC(C)C)C(=O)N[C@@H]([C@@H](C)O)C(=O)N[C@@H](Cc2ccccc2)C(=O)N(C)[C@@H](C(C)C)C(=O)N[C@H](C(=O)N2CCCCC2)CC(=O)N(C)CC(=O)N[C@@H](C)C(=O)N1C [DP-145] ([Sar]A[NMeI]L[NMeF][NMeL]TF[NMeV]D-Piperidide; lactam N-10) | 29 | 232 |  |  |
| CC(C)C[C@@H]1NC(=O)[C@@H]2CCCN2C(=O)[C@H](Cc2ccccc2)N(C)C(=O)[C@H](C)N(C)C(=O)[C@H]([C@@H](C)O)NC(=O)[C@@H](C(C)C)NC(=O)C[C@@H](C(=O)N2CCCCC2)NC(=O)[C@H](CC(C)C)N(C)C(=O)[C@H](C)N(C)C(=O)[C@H](Cc2ccccc2)NC(=O)[C@H](C(C)C)N(C)C1=O [DP-146] ([dV]T[NMeA][NMeF]PL[NMeV]F[NMeA][NMeL]D-Piperidide; lactam N-11) |  |  | 26 | 52 |
| CC[C@H](C)[C@H]1C(=O)N[C@@H](C)C(=O)N(C)[C@@H](CC(C)C)C(=O)N(C)[C@@H](Cc2ccccc2)C(=O)N[C@@H]([C@@H](C)O)C(=O)N(C)[C@@H](Cc2ccccc2)C(=O)N(C)[C@@H](CC(C)C)C(=O)N(C)[C@@H](CC(C)C)C(=O)N[C@H](C(=O)N2CCCCC2)CC(=O)N(C)CC(=O)N1C [DP-147] ([Sar][NMeI]A[NMeL][NMeF]T[NMeF][NMeL][NMeL]D-Piperidide; lactam N-10) |  |  | 29 | 147 |
| CC(C)C[C@H]1C(=O)N[C@@H](COC(C)(C)C)C(=O)N[C@H](C(=O)N2CCCCC2)CC(=O)N[C@H](C)C(=O)N(C)[C@@H](C)C(=O)N(C)[C@@H](Cc2ccccc2)C(=O)N(C)[C@@H](CC(C)C)C(=O)N[C@@H]([C@@H](C)O)C(=O)N(C)[C@@H](C)C(=O)N1C [DP-148] ([dA][NMeA][NMeF][NMeL]T[NMeA][NMeL]S(tBu)D-Piperidide; lactam N-9) |  |  | 31 | 69 |
| CC(C)C[C@H]1C(=O)N[C@@H]([C@@H](C)O)C(=O)N(C)[C@@H](C)C(=O)N[C@H](C(=O)N2CCCCC2)CC(=O)N(C)[C@@H](C)C(=O)N[C@@H](C)C(=O)N(C)[C@@H](Cc2ccccc2)C(=O)N(C)[C@@H](CC(C)C)C(=O)N[C@@H](Cc2ccccc2)C(=O)N1C [DP-150] ([NMeA]A[NMeF][NMeL]F[NMeL]T[NMeA]D-Piperidide; lactam N-9) | 33 | 701 |  |  |
| CC(C)C[C@H]1C(=O)N(C)[C@@H](CC(C)C)C(=O)N(C)CC(=O)N(C)[C@@H](Cc2ccccc2)C(=O)N[C@@H](C)C(=O)N(C)[C@@H](Cc2ccccc2)C(=O)N(C)[C@@H](CC(C)C)C(=O)N[C@@H]([C@@H](C)O)C(=O)N[C@H](C(=O)N2CCCCC2)CC(=O)N[C@H](C(C)C)C(=O)N(C)[C@@H](C)C(=O)N1C [DP-151] ([dV][NMeA][NMeL][NMeL][Sar][NMeF]A[NMeF][NMeL]TD-Piperidide; lactam N-11) | 27 | 30 |  |  |
| CC[C@H](C)[C@H]1C(=O)N[C@H](C(=O)N2CCCCC2)CC(=O)N(C)[C@@H](C)C(=O)N(C)[C@@H](CC(C)C)C(=O)N(C)[C@@H](Cc2ccccc2)C(=O)N[C@@H]([C@@H](C)O)C(=O)N(C)CC(=O)N(C)[C@@H](CC(C)C)C(=O)N[C@@H](COC(C)(C)C)C(=O)N1C [DP-152] ([NMeA][NMeL][NMeF]T[Sar][NMeL]S(tBu)[NMeI]D-Piperidide; lactam N-9) | 61 | 93 |  |  |
| CC(C)C[C@H]1C(=O)N(C)[C@@H](Cc2ccccc2)C(=O)N(C)[C@@H](CC(C)C)C(=O)N[C@@H](Cc2ccccc2)C(=O)N[C@@H]([C@@H](C)O)C(=O)N(C)[C@@H](C)C(=O)N[C@H](C(=O)N2CCCCC2)CC(=O)N(C)CCC(=O)N[C@@H](C)C(=O)N1C [DP-153] ([NMeβAla]A[NMeL][NMeF][NMeL]FT[NMeA]D-Piperidide; lactam N-9) | 26 | 179 |  |  |
| CC[C@H](C)[C@H]1C(=O)N[C@H](C(=O)N2CCCCC2)CC(=O)N(C)CCC(=O)N(C)[C@@H](Cc2ccccc2)C(=O)N(C)[C@@H](CC(C)C)C(=O)N[C@@H]([C@@H](C)O)C(=O)N(C)CC(=O)N(C)[C@@H](CC(C)C)C(=O)N[C@@H](COC(C)(C)C)C(=O)N1C [DP-155] ([NMeβAla][NMeF][NMeL]T[Sar][NMeL]S(tBu)[NMeI]D-Piperidide; lactam N-9) |  |  | 55 | 101 |
| CC(C)C[C@H]1C(=O)N(C)[C@@H](Cc2ccccc2)C(=O)N[C@@H](Cc2ccccc2)C(=O)N(C)[C@@H](CC(C)C)C(=O)N[C@@H]([C@@H](C)O)C(=O)N(C)[C@@H](C)C(=O)N[C@H](C(=O)N2CCCCC2)CC(=O)N(C)[C@H](C)C(=O)N[C@@H](C)C(=O)N1C [DP-157] ([dNMeA]A[NMeL][NMeF]F[NMeL]T[NMeA]D-Piperidide; lactam N-9) | 27 | 368 |  |  |
| CC(C)C[C@H]1C(=O)N(C)[C@@H](Cc2ccccc2)C(=O)N(C)[C@@H](Cc2ccccc2)C(=O)N[C@@H]([C@@H](C)O)C(=O)N(C)[C@@H](C)C(=O)N(C)[C@@H](CC(C)C)C(=O)N[C@H](C(=O)N2CCCCC2)CC(=O)N(C)[C@@H](C)C(=O)N(C)[C@@H](CC(C)C)C(=O)N(C)[C@@H](CC(C)C)C(=O)N[C@@H](C)C(=O)N1C [DP-158] ([NMeA][NMeL][NMeL]A[NMeL][NMeF][NMeF]T[NMeA][NMeL]D-Piperidide; lactam N-11) | 49 | 41 |  |  |
| CC[C@H](C)[C@@H]1NC(=O)CCN(C)C(=O)C[C@@H](C(=O)N2CCCCC2)NC(=O)[C@H](Cc2ccccc2)N(C)C(=O)[C@H](CC(C)C)N(C)C(=O)[C@H](C)N(C)C(=O)[C@H](Cc2ccccc2)N(C)C(=O)[C@H]([C@@H](C)O)NC(=O)[C@H](CC(C)C)N(C)C(=O)[C@H](C)N(C)C(=O)[C@H](CC(C)C)N(C)C1=O [DP-159] ([NMeβAla]I[NMeL][NMeA][NMeL]T[NMeF][NMeA][NMeL][NMeF]D-Piperidide; lactam N-11) | 39 | 54 |  |  |
| CC(C)C[C@H]1C(=O)N[C@@H](COC(C)(C)C)C(=O)N[C@H](C(=O)N2CCCCC2)CC(=O)N(C)[C@H](C)C(=O)N(C)[C@@H](C)C(=O)N(C)[C@@H](Cc2ccccc2)C(=O)N(C)[C@@H](CC(C)C)C(=O)N[C@@H]([C@@H](C)O)C(=O)N(C)[C@@H](C)C(=O)N1C [DP-160] ([dNMeA][NMeA][NMeF][NMeL]T[NMeA][NMeL]S(tBu)D-Piperidide; lactam N-9) | 37 | 68 |  |  |
| CC(C)C[C@H]1C(=O)N[C@@H](Cc2ccccc2)C(=O)N[C@@H]([C@@H](C)O)C(=O)N(C)[C@@H](C)C(=O)N[C@H](C(=O)N2CCCCC2)CC(=O)N(C)CC(=O)N[C@@H](C)C(=O)N(C)[C@@H](Cc2ccccc2)C(=O)N(C)[C@@H](CC(C)C)C(=O)N1C [DP-161] ([Sar]A[NMeF][NMeL][NMeL]FT[NMeA]D-Piperidide; lactam N-9) | 26 | 194 |  |  |
| CC[C@H](C)[C@@H]1NC(=O)[C@H](CC(C)C)N(C)C(=O)[C@H](Cc2ccccc2)NC(=O)[C@@H](C)N(C)C(=O)C[C@@H](C(=O)N2CCCCC2)NC(=O)[C@H](Cc2ccccc2)NC(=O)[C@H](C(C)O)NC(=O)[C@@H]2CCCN2C(=O)[C@H](CC(C)C)N(C)C(=O)CNC(=O)[C@H](CC(C)C)N(C)C1=O (some centres unmarked) [DP-162] ([dNMeA]F[NMeL]I[NMeL]G[NMeL]P[Thr(3ξ)]FD-Piperidide; lactam N-11) | 35 | 90 |  |  |
